In ChEMBL document CHEMBL1201862, “PubChem BioAssay data set” (2004):
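Cells were grown in 96-well plates and exposed to each compound for 48 hours at five concentrations; endpoints were interpolated linearly between bracketing concentrations, or set to the highest concentration if not reached. Abbreviation: GI50, concentration required for 50% inhibition of growth.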 Active and inactive are the calls of the source. No stated cut-off is given here; in the data, active = GI50 up to about 1.1 µM and inactive = higher.

How the values were obtained:
Test in all cases: NCI tumour cell line growth inhibition, 48 h
A549 = system: A549
CAKI-1 = system: CAKI-1
EKVX = system: EKVX
HCC 2998 = system: HCC 2998
HOP-62 = system: HOP-62
IGROV-1 = system: IGROV-1
M14 = system: M14
MCF7 = system: MCF7
MDA-MB-435 = system: MDA-MB-435
MDA-N = system: MDA-N
NCI-H23 = system: NCI-H23
RXF 393 = system: RXF 393
SF-539 = system: SF-539
SK-OV-3 = system: SK-OV-3
SN12C = system: SN12C
SNB-75 = system: SNB-75
T47D = system: T47D
UACC-257 = system: UACC-257
UACC-62 = system: UACC-62
UO-31 = system: UO-31

Compound	GI50 (A549)	GI50 (CAKI-1)	GI50 (EKVX)	GI50 (HCC 2998)	GI50 (HOP-62)	GI50 (IGROV-1)	GI50 (M14)	GI50 (MCF7)	GI50 (MDA-MB-435)	GI50 (MDA-N)	GI50 (NCI-H23)	GI50 (RXF 393)	GI50 (SF-539)	GI50 (SK-OV-3)	GI50 (SN12C)	GI50 (SNB-75)	GI50 (T47D)	GI50 (UACC-257)	GI50 (UACC-62)	GI50 (UO-31)
CC(C)(C)c1cc(OCc2nnc3sc(-c4ccc(Cl)cc4)nn23)c(Cl)cc1OCc1nnc2sc(-c3ccc(Cl)cc3)nn12	4.21 µM (inactive)	2.3 µM (inactive)	13.1 µM (inactive)	2.34 µM (inactive)	5.87 µM (inactive)	3.82 µM (inactive)	3.06 µM (inactive)	3.17 µM (inactive)	0.478 µM (active)	0.644 µM (active)	4.94 µM (inactive)	2.81 µM (inactive)	2.57 µM (inactive)	4.06 µM (inactive)	10.2 µM (inactive)	2.19 µM (inactive)	1.97 µM (inactive)	11.5 µM (inactive)	4.45 µM (inactive)	10.3 µM (inactive)
N#Cc1ccc(-n2c3ccccc3c3ccc4c(c32)C(=O)C=CC4=O)cc1	16.9 µM (inactive)	1.38 µM (inactive)	1.91 µM (inactive)	8.43 µM (inactive)	15.3 µM (inactive)	5.25 µM (inactive)	2.68 µM (inactive)	2.52 µM (inactive)	2.01 µM (inactive)	4.99 µM (inactive)	6.89 µM (inactive)	2.39 µM (inactive)	3.94 µM (inactive)	13.8 µM (inactive)	3.65 µM (inactive)	18.2 µM (inactive)	2.74 µM (inactive)	4.67 µM (inactive)	6.25 µM (inactive)	1.45 µM (inactive)
Cc1[nH]c2ncn(/N=C/c3ccccc3)c(=N)c2c1Cc1ccccc1	> 100 µM (inactive)	> 100 µM (inactive)	69.8 µM (inactive)	83.9 µM (inactive)	> 100 µM (inactive)	> 100 µM (inactive)	> 100 µM (inactive)	79.6 µM (inactive)	84.1 µM (inactive)	55.1 µM (inactive)	> 100 µM (inactive)	> 100 µM (inactive)	38.5 µM (inactive)	> 100 µM (inactive)	> 100 µM (inactive)	> 100 µM (inactive)	> 100 µM (inactive)	75.3 µM (inactive)	58.9 µM (inactive)	> 100 µM (inactive)
CCOC(=O)/C(=C\NCC(OCC)OCC)c1nc2ccccc2[nH]1	42.9 µM (inactive)	38.9 µM (inactive)	27.6 µM (inactive)	20.1 µM (inactive)	31.8 µM (inactive)	29 µM (inactive)	36.1 µM (inactive)	30.1 µM (inactive)	25 µM (inactive)	29 µM (inactive)	21.4 µM (inactive)	35.3 µM (inactive)	26.2 µM (inactive)	75 µM (inactive)	39.2 µM (inactive)	22.2 µM (inactive)	21.6 µM (inactive)	25.1 µM (inactive)	16.3 µM (inactive)	13.3 µM (inactive)
CCCC#CC(O)(C(=O)OC1CCN(C)CC1)C1CCCCC1 (stereo not given)	> 100 µM (inactive)	> 100 µM (inactive)	> 100 µM (inactive)	> 100 µM (inactive)	52 µM (inactive)	> 100 µM (inactive)	58.6 µM (inactive)	> 100 µM (inactive)	> 100 µM (inactive)	> 100 µM (inactive)	> 100 µM (inactive)	> 100 µM (inactive)	> 100 µM (inactive)	> 100 µM (inactive)	> 100 µM (inactive)	57 µM (inactive)	> 100 µM (inactive)	46.6 µM (inactive)	> 100 µM (inactive)	29 µM (inactive)
c1ccc(COCC23CCN(Cc4ccccc4)C(CC(OCc4ccccc4)C2)S3)cc1 (stereo not given)	41.4 µM (inactive)	77.1 µM (inactive)	49 µM (inactive)	58.5 µM (inactive)	65.9 µM (inactive)	> 100 µM (inactive)	39.3 µM (inactive)	14.8 µM (inactive)	46 µM (inactive)	50.9 µM (inactive)	31.4 µM (inactive)	> 100 µM (inactive)	> 100 µM (inactive)	> 100 µM (inactive)	57.9 µM (inactive)	> 100 µM (inactive)	26.4 µM (inactive)	45.3 µM (inactive)	52.4 µM (inactive)	30.2 µM (inactive)
